Some targets named below: Histone deacetylase 3 (Homo sapiens, UniProt O15379); Histone deacetylase 2 (Homo sapiens, UniProt Q92769); Histone deacetylase 1 (Homo sapiens, UniProt Q13547).
The nature of data set [1]: Volume of distribution at steady state in iv dosed rat. Type of data set: ADME, organism-based. Particulars: in vivo, read-out: Vdss.
Data set [2] has as its target T1, Protein deacetylase HDAC6 (Homo sapiens, UniProt Q9UBN7).
T1 sequence (Q9UBN7 whole entry): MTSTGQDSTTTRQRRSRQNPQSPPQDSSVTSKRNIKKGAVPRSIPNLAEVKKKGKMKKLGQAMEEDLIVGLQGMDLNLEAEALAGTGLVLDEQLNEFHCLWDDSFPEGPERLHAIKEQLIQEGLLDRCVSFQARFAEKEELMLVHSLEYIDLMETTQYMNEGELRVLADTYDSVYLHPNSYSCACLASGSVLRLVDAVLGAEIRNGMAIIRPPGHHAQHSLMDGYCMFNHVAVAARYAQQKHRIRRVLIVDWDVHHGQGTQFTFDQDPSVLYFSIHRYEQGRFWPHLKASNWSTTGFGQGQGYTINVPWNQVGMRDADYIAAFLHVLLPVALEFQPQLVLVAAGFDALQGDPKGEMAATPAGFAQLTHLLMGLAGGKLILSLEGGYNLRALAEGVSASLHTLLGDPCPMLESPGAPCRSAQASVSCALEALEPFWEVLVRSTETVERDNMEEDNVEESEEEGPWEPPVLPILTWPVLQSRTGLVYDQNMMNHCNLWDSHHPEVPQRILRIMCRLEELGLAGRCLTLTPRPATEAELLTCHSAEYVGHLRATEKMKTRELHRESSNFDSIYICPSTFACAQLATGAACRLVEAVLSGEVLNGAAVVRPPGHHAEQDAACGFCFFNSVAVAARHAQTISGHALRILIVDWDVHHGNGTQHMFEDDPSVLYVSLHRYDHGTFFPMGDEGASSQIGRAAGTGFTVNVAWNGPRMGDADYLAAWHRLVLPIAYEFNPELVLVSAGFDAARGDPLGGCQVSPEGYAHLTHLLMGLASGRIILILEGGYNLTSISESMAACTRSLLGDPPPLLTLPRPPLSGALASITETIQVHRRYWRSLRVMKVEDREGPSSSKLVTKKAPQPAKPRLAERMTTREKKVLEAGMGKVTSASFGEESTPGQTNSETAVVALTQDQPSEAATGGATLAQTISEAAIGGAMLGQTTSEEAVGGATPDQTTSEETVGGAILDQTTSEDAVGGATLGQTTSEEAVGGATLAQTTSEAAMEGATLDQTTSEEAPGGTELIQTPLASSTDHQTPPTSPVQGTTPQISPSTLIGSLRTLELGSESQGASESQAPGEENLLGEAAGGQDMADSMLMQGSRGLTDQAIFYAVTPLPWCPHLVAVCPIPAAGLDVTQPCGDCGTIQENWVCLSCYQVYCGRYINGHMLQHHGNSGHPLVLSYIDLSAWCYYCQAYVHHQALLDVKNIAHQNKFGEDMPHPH

A short description of data set [3]: Oral bioavailability in rat. Type of data set: ADME, organism-based. Particulars: in vivo.
Another data set has as its target Histone deacetylase 4 (Homo sapiens, UniProt P56524). Description: Inhibition of HDAC4.
A short description of data set [4]: Half life in iv dosed dog. It counts as ADME, organism-based, Canis lupus familiaris. To be noted: in vivo.
For data set [5], the system named is HCT-116. Kind of data set: Antiproliferative activity against human HCT116 cells after 72 hrs by celltiter-blue viability assay. It counts as functional, cell-based. To be noted: HCT-116, 72 h. In general terms: Resazurin is reduced to fluorescent resorufin, in cell work by metabolically active cells.
The next data set has as its system Liver microsomes. Kind of data set: Metabolic stability in human liver microsomes assessed as intrinsic clearance. It counts as ADME, Microsome. (Microsomes from liver hold many membrane-bound enzymes, among them those of drug oxidation.)
Data set [6] is described as follows: Volume of distribution at steady state in iv dosed dog. Type of data set: ADME, organism-based, Canis lupus familiaris. To be noted: in vivo, read-out: Vdss.
The target in the next data set is Histone deacetylase 5 (Homo sapiens, UniProt Q9UQL6). Description: Inhibition of HDAC5.
Histone deacetylase 5, sequence (Q9UQL6 whole entry): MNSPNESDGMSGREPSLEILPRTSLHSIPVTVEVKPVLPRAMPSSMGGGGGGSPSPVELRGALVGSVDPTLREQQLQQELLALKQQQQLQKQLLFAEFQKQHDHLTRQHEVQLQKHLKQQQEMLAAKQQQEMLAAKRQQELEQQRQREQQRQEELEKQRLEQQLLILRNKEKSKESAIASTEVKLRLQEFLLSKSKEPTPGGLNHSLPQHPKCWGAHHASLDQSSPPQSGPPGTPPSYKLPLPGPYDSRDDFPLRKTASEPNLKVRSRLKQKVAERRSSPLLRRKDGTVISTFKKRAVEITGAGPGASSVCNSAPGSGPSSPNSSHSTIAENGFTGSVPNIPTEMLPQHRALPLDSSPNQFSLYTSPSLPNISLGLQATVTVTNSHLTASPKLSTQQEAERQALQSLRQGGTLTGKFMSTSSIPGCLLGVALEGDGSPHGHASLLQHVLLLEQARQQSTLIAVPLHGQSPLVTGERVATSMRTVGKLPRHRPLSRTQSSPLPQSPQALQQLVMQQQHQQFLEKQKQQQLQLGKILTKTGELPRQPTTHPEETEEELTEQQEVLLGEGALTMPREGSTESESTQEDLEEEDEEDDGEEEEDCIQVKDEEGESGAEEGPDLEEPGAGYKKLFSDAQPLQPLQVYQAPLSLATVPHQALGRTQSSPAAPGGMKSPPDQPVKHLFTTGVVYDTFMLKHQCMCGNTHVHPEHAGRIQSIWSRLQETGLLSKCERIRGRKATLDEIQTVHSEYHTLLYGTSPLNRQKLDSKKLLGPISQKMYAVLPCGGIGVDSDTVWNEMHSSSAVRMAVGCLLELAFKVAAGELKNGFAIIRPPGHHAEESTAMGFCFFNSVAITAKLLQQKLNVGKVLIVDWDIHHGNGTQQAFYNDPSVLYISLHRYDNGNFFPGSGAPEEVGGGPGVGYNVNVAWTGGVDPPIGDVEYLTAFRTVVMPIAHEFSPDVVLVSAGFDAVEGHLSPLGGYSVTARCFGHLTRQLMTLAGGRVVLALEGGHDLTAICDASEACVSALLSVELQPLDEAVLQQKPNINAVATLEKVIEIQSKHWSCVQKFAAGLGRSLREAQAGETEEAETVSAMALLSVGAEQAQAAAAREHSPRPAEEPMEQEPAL
Data set [7] in a line: Protein binding in human plasma. Particulars: read-out: PPB (converted). Type of data set: ADME, cell-free.
The nature of data set [8]: Protein binding in dog plasma. Type of data set: ADME, cell-free, Canis lupus familiaris. Particulars: read-out: PPB (converted).
A short description of data set [9]: Clearance in iv dosed rat. Type of data set: ADME, organism-based. Particulars: in vivo.
The test system of the next data set is A549. Description: Antiproliferative activity against human A549 cells after 72 hrs by celltiter-blue viability assay. It counts as functional, cell-based. To be noted: A549, 72 h.
Data set [10] can be described thus: Clearance in iv dosed dog. It counts as ADME, organism-based, Canis lupus familiaris. Particulars: in vivo.
A short description of data set [11]: Oral bioavailability dog. It counts as ADME, organism-based, Canis lupus familiaris. Particulars: in vivo.
Data set [12] in a line: Metabolic stability in rat liver microsomes assessed as intrinsic clearance. It counts as ADME, Microsome.
The nature of data set [13]: Half life in iv dosed rat. Type of data set: ADME, organism-based. To be noted: in vivo.
Data set [14] is described as follows: Protein binding in rat plasma. Type of data set: ADME, cell-free. Particulars: read-out: PPB (converted).
A further data set deals with T2, Histone deacetylase 7 (Homo sapiens, UniProt Q8WUI4).
T2 sequence (Q8WUI4 whole entry): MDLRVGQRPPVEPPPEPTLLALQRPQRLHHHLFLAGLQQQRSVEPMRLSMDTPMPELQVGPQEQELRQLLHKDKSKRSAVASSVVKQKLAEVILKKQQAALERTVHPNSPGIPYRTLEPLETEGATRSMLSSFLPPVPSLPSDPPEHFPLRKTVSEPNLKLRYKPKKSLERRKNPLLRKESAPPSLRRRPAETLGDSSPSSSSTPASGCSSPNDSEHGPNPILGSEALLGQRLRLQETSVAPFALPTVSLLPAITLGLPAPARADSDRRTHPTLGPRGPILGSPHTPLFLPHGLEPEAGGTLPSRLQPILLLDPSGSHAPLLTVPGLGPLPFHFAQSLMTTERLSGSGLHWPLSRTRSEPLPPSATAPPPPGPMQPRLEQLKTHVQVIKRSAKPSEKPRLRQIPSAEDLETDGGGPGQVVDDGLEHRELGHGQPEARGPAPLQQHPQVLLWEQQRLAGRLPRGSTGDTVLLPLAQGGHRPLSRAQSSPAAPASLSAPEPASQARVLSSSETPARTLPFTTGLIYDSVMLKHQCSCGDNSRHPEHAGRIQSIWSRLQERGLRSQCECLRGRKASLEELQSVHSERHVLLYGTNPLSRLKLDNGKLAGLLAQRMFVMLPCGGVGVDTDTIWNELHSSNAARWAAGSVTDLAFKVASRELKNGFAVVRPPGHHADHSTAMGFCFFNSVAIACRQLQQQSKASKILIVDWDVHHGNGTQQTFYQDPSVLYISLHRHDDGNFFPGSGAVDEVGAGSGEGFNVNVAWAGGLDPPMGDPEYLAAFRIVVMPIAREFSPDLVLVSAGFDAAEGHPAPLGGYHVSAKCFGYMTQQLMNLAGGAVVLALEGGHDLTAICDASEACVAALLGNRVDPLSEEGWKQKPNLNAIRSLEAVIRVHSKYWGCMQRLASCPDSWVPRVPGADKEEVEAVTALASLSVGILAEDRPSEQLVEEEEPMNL
Kind of data set: Inhibition of HDAC7.

The target of another data set is T3, Histone deacetylase 8 (Homo sapiens, UniProt Q9BY41).
T3 sequence (Q9BY41 whole entry): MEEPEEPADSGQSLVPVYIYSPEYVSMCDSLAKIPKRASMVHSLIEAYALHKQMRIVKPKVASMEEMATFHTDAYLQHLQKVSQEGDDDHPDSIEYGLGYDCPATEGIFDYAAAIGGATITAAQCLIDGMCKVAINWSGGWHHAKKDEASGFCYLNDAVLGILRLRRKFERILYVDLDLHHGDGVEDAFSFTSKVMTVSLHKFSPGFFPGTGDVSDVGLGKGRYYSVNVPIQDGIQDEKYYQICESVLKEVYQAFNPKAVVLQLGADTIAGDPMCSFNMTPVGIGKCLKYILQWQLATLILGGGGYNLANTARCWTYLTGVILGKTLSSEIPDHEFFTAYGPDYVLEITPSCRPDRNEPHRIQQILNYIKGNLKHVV
Kind of data set: Inhibition of HDAC8.

A short description of data set [15]: Metabolic stability in dog liver microsomes assessed as intrinsic clearance. Type of data set: ADME, Canis lupus familiaris, Microsome.
In the next data set the test system is HeLa. Kind of data set: Antiproliferative activity against human HeLa cells after 72 hrs by celltiter-blue viability assay. It counts as functional, cell-based.
In data set [16] the test system is HCT-116. Kind of data set: In vivo antitumor activity against human HCT116 cells. It counts as functional, organism-based.

Calls of active or inactive are those of the source.

Histone deacetylase 4, sequence (P56524 whole entry): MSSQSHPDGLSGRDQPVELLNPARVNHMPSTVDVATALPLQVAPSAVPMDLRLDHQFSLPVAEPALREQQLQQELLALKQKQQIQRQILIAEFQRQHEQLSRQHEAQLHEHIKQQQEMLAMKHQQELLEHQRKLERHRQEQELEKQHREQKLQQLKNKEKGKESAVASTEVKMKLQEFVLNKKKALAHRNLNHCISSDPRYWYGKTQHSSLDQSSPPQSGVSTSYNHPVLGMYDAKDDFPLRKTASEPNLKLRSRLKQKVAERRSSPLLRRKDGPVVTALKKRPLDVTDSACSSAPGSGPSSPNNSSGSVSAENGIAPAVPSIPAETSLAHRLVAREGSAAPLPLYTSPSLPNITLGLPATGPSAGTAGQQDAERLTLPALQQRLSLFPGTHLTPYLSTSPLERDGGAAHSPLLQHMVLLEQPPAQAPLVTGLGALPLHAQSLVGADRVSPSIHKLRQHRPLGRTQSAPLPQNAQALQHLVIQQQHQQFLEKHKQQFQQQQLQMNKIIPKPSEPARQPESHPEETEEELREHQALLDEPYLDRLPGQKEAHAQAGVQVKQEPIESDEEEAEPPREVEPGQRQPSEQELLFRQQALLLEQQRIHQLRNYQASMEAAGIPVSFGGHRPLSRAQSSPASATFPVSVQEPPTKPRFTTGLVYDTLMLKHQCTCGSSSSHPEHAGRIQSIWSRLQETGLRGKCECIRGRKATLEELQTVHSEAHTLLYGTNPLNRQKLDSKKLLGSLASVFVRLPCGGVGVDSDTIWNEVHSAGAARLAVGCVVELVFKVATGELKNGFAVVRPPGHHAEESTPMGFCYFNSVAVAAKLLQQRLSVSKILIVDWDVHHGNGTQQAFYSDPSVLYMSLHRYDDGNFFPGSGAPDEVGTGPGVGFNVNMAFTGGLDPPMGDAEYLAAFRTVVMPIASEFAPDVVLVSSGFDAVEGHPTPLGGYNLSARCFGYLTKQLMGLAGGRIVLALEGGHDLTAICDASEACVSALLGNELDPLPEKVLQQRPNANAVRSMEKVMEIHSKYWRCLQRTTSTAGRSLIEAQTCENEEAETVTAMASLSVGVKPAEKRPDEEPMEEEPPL
Histone deacetylase 3, sequence (O15379 whole entry): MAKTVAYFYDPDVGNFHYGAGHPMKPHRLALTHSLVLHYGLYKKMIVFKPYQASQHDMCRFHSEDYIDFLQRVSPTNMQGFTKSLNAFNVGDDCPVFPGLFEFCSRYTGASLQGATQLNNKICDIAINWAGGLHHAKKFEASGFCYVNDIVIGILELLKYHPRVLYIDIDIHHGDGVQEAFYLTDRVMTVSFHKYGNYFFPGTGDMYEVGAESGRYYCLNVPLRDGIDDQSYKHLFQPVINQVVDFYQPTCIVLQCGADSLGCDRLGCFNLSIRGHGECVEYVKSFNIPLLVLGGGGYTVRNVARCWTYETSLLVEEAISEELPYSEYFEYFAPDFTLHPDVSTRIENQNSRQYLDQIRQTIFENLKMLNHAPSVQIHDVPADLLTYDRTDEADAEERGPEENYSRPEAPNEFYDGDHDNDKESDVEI
Histone deacetylase 1, sequence (Q13547 whole entry): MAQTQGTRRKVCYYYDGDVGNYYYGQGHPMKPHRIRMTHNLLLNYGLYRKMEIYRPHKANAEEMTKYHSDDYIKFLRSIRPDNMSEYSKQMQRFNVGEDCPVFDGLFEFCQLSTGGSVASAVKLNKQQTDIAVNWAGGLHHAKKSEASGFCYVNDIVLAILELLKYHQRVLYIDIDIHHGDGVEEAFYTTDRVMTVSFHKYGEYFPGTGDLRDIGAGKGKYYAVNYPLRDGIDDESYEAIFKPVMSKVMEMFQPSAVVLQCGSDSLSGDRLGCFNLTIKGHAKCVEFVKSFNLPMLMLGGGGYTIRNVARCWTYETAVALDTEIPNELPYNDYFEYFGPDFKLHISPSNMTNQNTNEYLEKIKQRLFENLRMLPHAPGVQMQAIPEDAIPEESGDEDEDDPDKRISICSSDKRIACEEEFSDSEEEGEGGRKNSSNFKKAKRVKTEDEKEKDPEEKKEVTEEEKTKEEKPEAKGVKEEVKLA
Histone deacetylase 2, sequence (Q92769 whole entry): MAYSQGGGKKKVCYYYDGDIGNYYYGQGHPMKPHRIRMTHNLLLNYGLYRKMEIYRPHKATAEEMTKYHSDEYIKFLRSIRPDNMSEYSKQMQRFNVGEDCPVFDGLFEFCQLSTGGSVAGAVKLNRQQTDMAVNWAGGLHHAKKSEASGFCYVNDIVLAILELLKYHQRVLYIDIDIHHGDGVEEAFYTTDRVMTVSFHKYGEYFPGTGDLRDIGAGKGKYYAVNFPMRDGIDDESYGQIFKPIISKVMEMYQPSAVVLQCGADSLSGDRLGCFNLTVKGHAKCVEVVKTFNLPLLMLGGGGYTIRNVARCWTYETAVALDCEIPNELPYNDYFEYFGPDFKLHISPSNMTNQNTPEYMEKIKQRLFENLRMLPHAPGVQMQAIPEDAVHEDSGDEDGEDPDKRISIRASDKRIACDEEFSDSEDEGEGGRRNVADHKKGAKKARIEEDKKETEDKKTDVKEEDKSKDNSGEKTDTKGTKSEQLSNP
Description for Histone deacetylase 1: Inhibition of human recombinant C-terminally flag tagged HDAC1

In the case of `CC(=O)CCCCC[C@H](NC(=O)C1CCN(C)CC1)c1ncc(-c2ccc3ccccc3c2)[nH]1`, the IC50 – broadly, the concentration that inhibits the measured activity by half – on Histone deacetylase 3 was 17 nM; at Histone deacetylase 2 it was 29 nM; in data set [2], 10 nM; against Histone deacetylase 4 it was greater than 1000 nM; in the data set on HCT-116 [5], 590 nM; against Histone deacetylase 1 it was 11 nM. Besides, the IC50 at Histone deacetylase 5 is greater than 1000 nM; with A549, 720 nM; on Histone deacetylase 7, greater than 1000 nM; at Histone deacetylase 8 it was greater than 1000 nM; in the data set with HeLa, 300 nM. In addition, the Vd in data set [1] stood at 6.9 L/kg; in data set [6], 5.2 L/kg. Besides, the bioavailability (in general, the share of a dose that reaches the circulation, judged against a reference dose that is usually intravenous) in data set [3] is 0%; in data set [11], 28%. Further, the half-life (usually the time needed for the level to fall by half in the phase considered) is 11.8 h in data set [4] and 2.4 h in [13]. In addition, the results for the CL (in the data set on Liver microsomes; in [15]) were 12 µL/min/mg and 10 µL/min/mg, respectively. The fraction unbound in data set [7] is 0.04; in [8], 0.04; in data set [14] it was 0.11. The results for the clearance in data set [9] and in [10] were 133 mL/min/kg and 7 mL/min/kg, respectively. In [12], the microsomal CLint (in general, the capacity of the preparation to metabolise the compound, expressed as a volume cleared per time) was 194 µL/min/mg.
`COc1ccc2[nH]c(C)c(CC(=O)N[C@@H](CCCCCC(C)=O)c3ncc(-c4ccccc4)[nH]3)c2c1`: the IC50 against Histone deacetylase 4, at Histone deacetylase 5, against Histone deacetylase 7 and against Histone deacetylase 8 was greater than 1000 nM in each case. For the same molecule, in the data set with HCT-116 [16], the outcome was Active. Moreover, the microsomal CLint in [12] is greater than 300 µL/min/mg.

These data come from ChEMBL document CHEMBL1152225, “Optimization of a series of potent and selective ketone histone deacetylase inhibitors” (Bioorg Med Chem Lett, 2008).
